ChEMBL document CHEMBL4011585, “Identification of dibenzyl imidazolidine and triazole acetamide derivatives through virtual screening targeting amyloid beta aggregation and neurotoxicity in PC12 cells” (Eur J Med Chem, 2017)
Active and inactive are the calls of the source. The calls are words filed in the database; no cut-off is given here.

How the values were obtained:
[1] = target: Amyloid-beta precursor protein (Homo sapiens) (UniProt P05067); experiment: Inhibition of recombinant human amyloid beta (1 to 42) aggregation at 100 uM measured every 10 mins for 48 hrs by thioflavin T fluorescence assay
Sequence of Amyloid-beta precursor protein (Homo sapiens) (P05067 whole entry): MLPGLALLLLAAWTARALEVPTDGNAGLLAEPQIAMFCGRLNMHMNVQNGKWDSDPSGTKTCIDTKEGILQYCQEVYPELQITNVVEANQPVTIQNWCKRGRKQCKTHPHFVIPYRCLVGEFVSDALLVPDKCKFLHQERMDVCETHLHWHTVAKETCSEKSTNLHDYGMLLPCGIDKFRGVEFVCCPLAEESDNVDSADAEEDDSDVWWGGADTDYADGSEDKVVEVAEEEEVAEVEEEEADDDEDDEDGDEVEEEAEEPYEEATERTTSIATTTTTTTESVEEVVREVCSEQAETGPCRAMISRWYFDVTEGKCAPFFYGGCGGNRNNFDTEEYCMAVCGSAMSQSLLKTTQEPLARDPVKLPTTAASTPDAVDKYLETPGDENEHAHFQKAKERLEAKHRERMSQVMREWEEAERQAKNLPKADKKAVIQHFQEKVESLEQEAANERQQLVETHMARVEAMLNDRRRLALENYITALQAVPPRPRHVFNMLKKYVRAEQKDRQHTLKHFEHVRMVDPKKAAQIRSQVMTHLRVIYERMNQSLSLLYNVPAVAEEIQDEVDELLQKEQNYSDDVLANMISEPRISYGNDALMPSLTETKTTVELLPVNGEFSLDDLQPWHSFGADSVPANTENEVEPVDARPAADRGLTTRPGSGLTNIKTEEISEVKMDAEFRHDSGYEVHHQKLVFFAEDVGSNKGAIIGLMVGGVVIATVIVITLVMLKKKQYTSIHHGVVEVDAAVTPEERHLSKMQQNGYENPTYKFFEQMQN

[2] = target: Amyloid-beta precursor protein (Homo sapiens) (UniProt P05067); experiment: Induction of morphological changes in recombinant human amyloid beta (1 to 42) fibrils assessed as thinner fibril at 100 uM measured after 48 hrs by transmission electron microscopic method
[3] = target: Amyloid-beta precursor protein (Homo sapiens) (UniProt P05067); experiment: Induction of morphological changes in recombinant human amyloid beta (1 to 42) assessed as appearance of uneven fibrils at 100 uM measured after 48 hrs by transmission electron microscopic method
[4] = target: Amyloid-beta precursor protein (Homo sapiens) (UniProt P05067); experiment: Induction of morphological changes in recombinant human amyloid beta (1 to 42) assessed as appearance of small mesh-like aggregates at 100 uM measured after 48 hrs by transmission electron microscopic method
[5] = target: Amyloid-beta precursor protein (Homo sapiens) (UniProt P05067); experiment: Induction of morphological changes in recombinant human amyloid beta (1 to 42) assessed as appearance of punctate at 100 uM measured after 48 hrs by transmission electron microscopic method
[6] = target: Amyloid-beta precursor protein (Homo sapiens) (UniProt P05067); experiment: Induction of morphological changes in recombinant human amyloid beta (1 to 42) assessed as less dense fibril at 100 uM measured after 48 hrs by transmission electron microscopic method
PC-12 [7] = experiment: Cytotoxicity against rat PC12 cells assessed as reduction in cell viability at 100 uM after 48 hrs by MTT assay relative to control; format: cell-based; conditions: pc-12, 48 h
[8] = target: Amyloid-beta precursor protein (Homo sapiens) (UniProt P05067); experiment: Induction of morphological changes in recombinant human amyloid beta (1 to 42) fibrils assessed as shorter fibril at 100 uM measured after 48 hrs by transmission electron microscopic method
[9] = target: Amyloid-beta precursor protein (Homo sapiens) (UniProt P05067); experiment: Induction of morphological changes in recombinant human amyloid beta (1 to 42) assessed as loosely attached fibrils at 100 uM measured after 48 hrs by transmission electron microscopic method
[10] = target: Amyloid-beta precursor protein (Homo sapiens) (UniProt P05067); experiment: Induction of morphological changes in recombinant human amyloid beta (1 to 42) assessed as smoother fibrils at 100 uM measured after 48 hrs by transmission electron microscopic method
PC-12 [11] = experiment: Cytotoxicity against rat PC12 cells assessed as reduction in cell viability up to 100 uM after 48 hrs by MTT assay; format: cell-based; conditions: pc-12, 48 h
PC-12 [12] = experiment: Neuroprotective activity against amyloid beta (1 to 42)-induced cell death in rat PC12 cells assessed as cell viability at 100 uM measured after 48 hrs by MTS assay relative to control; format: functional
PC-12 [13] = experiment: Cytotoxicity against rat PC12 cells assessed as reduction in cell viability at 10 uM after 48 hrs by MTT assay relative to control; format: cell-based; conditions: pc-12, 48 h
PC-12 [14] = experiment: Cytotoxicity against rat PC12 cells assessed as reduction in cell viability after 48 hrs by MTT assay; format: cell-based; conditions: pc-12, 48 h

SMILES	inhibition [1]	Activity [2]	Activity [3]	Activity [4]	Activity [5]	Activity [6]	Activity [8]	Activity [9]	Activity [10]	Activity (PC-12 [7])	Activity (PC-12 [11])	Activity (PC-12 [12])	viability at 100 µM (PC-12 [12]; PC-12, 48 h, read-out: Activity)	Activity (PC-12 [13])	Activity (PC-12 [14])
Cc1ccc(NC(=O)CSc2nnc(-c3ccc(N)cc3)n2C)cc1	Active	Active	Active	Active	Active	Active	–	–	–	60%	–	–	–	–	–
Cn1c(SCC(=O)Nc2ccccc2)nnc1-c1ccc(N)cc1	Active	Active	Active	Active	Active	Active	–	–	–	20 to 25%	–	–	73 to 78%	–	–
Cc1cccc(CNC(=O)[C@@H](C)C2CCN(C(=O)c3ccc4oc(-c5ccccc5)nc4c3)CC2)c1	inactive	–	–	–	–	inactive	–	–	–	87%	–	–	–	35%	Dose-dependent effect

Second part, led by results:

inhibition [1]	Activity [2]	Activity [3]	Activity [4]	Activity [5]	Activity [6]	Activity [8]	Activity [9]	Activity [10]	SMILES	Activity (PC-12 [7])	Activity (PC-12 [11])	Activity (PC-12 [12])	viability at 100 µM (PC-12 [12]; PC-12, 48 h, read-out: Activity)	Activity (PC-12 [13])	Activity (PC-12 [14])
inactive	Active	–	–	–	Active	Active	Active	Active	c1ccc(COc2cccc(C3N(Cc4ccccc4)CCN3Cc3ccccc3)c2)cc1	–	Non-Toxic	Active	–	–	–
Active	Active	Active	–	–	Active	Active	Active	–	COc1cc(C2N(Cc3ccccc3)CCN2Cc2ccccc2)ccc1OCc1ccccc1	–	Non-Toxic	Active	–	–	–
